From US9302999B2, “Substituted triazoles as herbicides” (E. I. DU PONT DE NEMOURS AND COMPANY, priority 2012, dated 2016)

Assays:
Format in all cases: in vivo
[1] = system: foxtail, giant (giant foxtail, Setaria faberii); assay: Test A pre-/postemergence: foxtail, giant
Outline: (§1)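 Compounds, formulated with surfactant in non-phytotoxic solvent, were applied as a directed soil spray preemergence and as postemergence sprays to 2–10 cm, one- to two-leaf seedlings grown in loam soil blended with sand; visual injury, 0–100, assessed ~10 days post-treatment against untreated controls.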

[2] = system: sedge, umbrella (small-flower umbrella sedge, Cyperus difformis); assay: Test C flooded paddy test: sedge, umbrella; settings: scale 0 to 100 (0 no effect, 100 complete control)
Outline: (§2)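 2-leaf stage plants; pots flooded 3 cm above soil; compound applied into paddy water, depth maintained. Greenhouse 13–15 d. Visual rating vs controls, 0–100 (0 = no effect, 100 = complete control); dash = no result.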

[3] = system: morningglory (Ipomoea spp.); assay: Test A pre-/postemergence: morningglory
Outline: as §1

rice (Oryza sativa) = assay: Test C flooded paddy test: rice; settings: scale 0 to 100 (0 no effect, 100 complete control)
Outline: as §2

[4] = system: crabgrass, large (large crabgrass, Digitaria sanguinalis); assay: Test A pre-/postemergence: crabgrass, large
Outline: as §1

[5] = system: barnyardgrass (Echinochloa crus-galli); assay: Test C flooded paddy test: barnyardgrass; settings: scale 0 to 100 (0 no effect, 100 complete control)
Outline: as §2

[6] = system: wheat (Triticum aestivum); assay: Test A pre-/postemergence: wheat
Outline: as §1

[7] = system: barnyardgrass (Echinochloa crus-galli); assay: Test A pre-/postemergence: barnyardgrass
Outline: as §1

corn (Zea mays) = assay: Test A pre-/postemergence: corn
Outline: as §1

[8] = system: ducksalad (Heteranthera limosa); assay: Test C flooded paddy test: ducksalad; settings: scale 0 to 100 (0 no effect, 100 complete control)
Outline: as §2

[9] = system: velvetleaf (Abutilon theophrasti); assay: Test A pre-/postemergence: velvetleaf
Outline: as §1

[10] = system: pigweed (Amaranthus retroflexus); assay: Test A pre-/postemergence: pigweed
Outline: as §1

[11] = Postemergence, 1000 g ai/ha, visual rating on 0 to 100 scale (0 no effect, 100 complete control), approximately ten days
[12] = Preemergence, 1000 g ai/ha, 0 to 100 scale, 0 is no effect, 100 is complete control
[13] = Flood (flooded paddy test), 125 g ai/ha, visual rating after 13 to 15 days
[14] = Flood (flooded paddy test), 250 g ai/ha, visual rating after 13 to 15 days
[15] = Postemergence, 125 g ai/ha, 0 to 100 scale, 0 is no effect, 100 is complete control
[16] = Postemergence, 500 g ai/ha, visual rating on 0 to 100 scale (0 no effect, 100 complete control), approximately ten days
[17] = Preemergence, 125 g ai/ha, 0 to 100 scale (0 no effect, 100 complete control)
[18] = Preemergence, 500 g ai/ha, 0 to 100 scale, 0 is no effect, 100 is complete control

## Cc1nn(-c2ccc(C(F)(F)F)cn2)nc1Oc1cccc(C(F)(F)F)c1 [Compound 109]
[1]; [11]
  Foxtail, Giant plant response rating: 90
[1]; [12]
  Foxtail, Giant plant response rating: 100
[2]; [13]
  Plant response rating, Sedge, Umbrella: 85
[2]; [14]
  Plant response rating, Sedge, Umbrella: 85
[2]; Flood, 31 g ai/ha
  Plant response rating, Sedge, Umbrella: 38
[2]; Flood, 62 g ai/ha
  Plant response rating, Sedge, Umbrella: 63
[3]; [11]
  Morningglory plant response rating: 90
[3]; [12]
  Morningglory plant response rating: 50
Rice (Oryza sativa); [13]
  Plant response rating, Rice: 15
Rice (Oryza sativa); [14]
  Plant response rating, Rice: 25
Rice (Oryza sativa); Flood, 31 g ai/ha
  Plant response rating, Rice: 15
Rice (Oryza sativa); Flood, 62 g ai/ha
  Plant response rating, Rice: 15
[4]; [11]
  Crabgrass, Large plant response rating: 90
[4]; [12]
  Crabgrass, Large plant response rating: 100
[5]; [13]
  Plant response rating, Barnyardgrass: 40
[5]; [14]
  Plant response rating, Barnyardgrass: 75
[5]; Flood, 31 g ai/ha
  Plant response rating, Barnyardgrass: 0
[5]; Flood, 62 g ai/ha
  Plant response rating, Barnyardgrass: 20
[6]; [11]
  Wheat plant response rating: 50
[6]; [12]
  Wheat plant response rating: 20
[7]; [11]
  Barnyardgrass plant response rating: 90
[7]; [12]
  Barnyardgrass plant response rating: 100
Corn (Zea mays); [11]
  Corn plant response rating: 90
Corn (Zea mays); [12]
  Corn plant response rating: 40
[8]; [13]
  Plant response rating, Ducksalad: 60
[8]; [14]
  Plant response rating, Ducksalad: 80
[8]; Flood, 31 g ai/ha
  Plant response rating, Ducksalad: 0
[8]; Flood, 62 g ai/ha
  Plant response rating, Ducksalad: 20
[9]; [11]
  Velvetleaf plant response rating: 80
[9]; [12]
  Velvetleaf plant response rating: 30
[10]; [11]
  Pigweed plant response rating: 100
[10]; [12]
  Pigweed plant response rating: 100

## CCc1nn(-c2ccc(C(F)(F)F)cc2)nc1Cn1nc(C(F)(F)F)cc1C [Compound 131]
[1]; [11]
  Foxtail, Giant plant response rating: 50
[1]; [12]
  Foxtail, Giant plant response rating: 90
[2]; [14]
  Plant response rating, Sedge, Umbrella: 0
[2]; Flood, 62 g ai/ha
  Plant response rating, Sedge, Umbrella: 0
[3]; [11]
  Morningglory plant response rating: 70
[3]; [12]
  Morningglory plant response rating: 10
Rice (Oryza sativa); [14]
  Plant response rating, Rice: 0
Rice (Oryza sativa); Flood, 62 g ai/ha
  Plant response rating, Rice: 0
[4]; [11]
  Crabgrass, Large plant response rating: 90
[4]; [12]
  Crabgrass, Large plant response rating: 90
[5]; [14]
  Plant response rating, Barnyardgrass: 10
[5]; Flood, 62 g ai/ha
  Plant response rating, Barnyardgrass: 0
[6]; [11]
  Wheat plant response rating: 0
[6]; [12]
  Wheat plant response rating: 0
[7]; [11]
  Barnyardgrass plant response rating: 30
[7]; [12]
  Barnyardgrass plant response rating: 20
Corn (Zea mays); [11]
  Corn plant response rating: 30
Corn (Zea mays); [12]
  Corn plant response rating: 0
[8]; [14]
  Plant response rating, Ducksalad: 20
[8]; Flood, 62 g ai/ha
  Plant response rating, Ducksalad: 0
[9]; [11]
  Velvetleaf plant response rating: 40
[9]; [12]
  Velvetleaf plant response rating: 0
[10]; [11]
  Pigweed plant response rating: 100
[10]; [12]
  Pigweed plant response rating: 90

## COc1nn(-c2ccc(C(F)(F)F)cc2)nc1C(O)c1ccnc(C(F)(F)F)c1 (centres unmarked) [Compound 78]
[1]; [15]
  Foxtail, Giant plant response rating: 10
[1]; [16]
  Foxtail, Giant plant response rating: 30
[1]; [17]
  Plant response rating, Foxtail, Giant: 20
[1]; [18]
  Plant response rating, Foxtail, Giant: 70
[2]; [13]
  Plant response rating, Sedge, Umbrella: 0
[2]; [14]
  Plant response rating, Sedge, Umbrella: 0
[2]; Flood, 31 g ai/ha
  Plant response rating, Sedge, Umbrella: 0
[2]; Flood, 62 g ai/ha
  Plant response rating, Sedge, Umbrella: 0
[3]; [15]
  Morningglory plant response rating: 0
[3]; [16]
  Morningglory plant response rating: 40
[3]; [17]
  Plant response rating, Morningglory: 0
[3]; [18]
  Plant response rating, Morningglory: 10
Rice (Oryza sativa); [13]
  Plant response rating, Rice: 0
Rice (Oryza sativa); [14]
  Plant response rating, Rice: 0
Rice (Oryza sativa); Flood, 31 g ai/ha
  Plant response rating, Rice: 0
Rice (Oryza sativa); Flood, 62 g ai/ha
  Plant response rating, Rice: 0
[4]; [15]
  Crabgrass, Large plant response rating: 10
[4]; [16]
  Crabgrass, Large plant response rating: 20
[4]; [17]
  Plant response rating, Crabgrass, Large: 60
[4]; [18]
  Plant response rating, Crabgrass, Large: 80
[5]; [13]
  Plant response rating, Barnyardgrass: 0
[5]; [14]
  Plant response rating, Barnyardgrass: 20
[5]; Flood, 31 g ai/ha
  Plant response rating, Barnyardgrass: 0
[5]; Flood, 62 g ai/ha
  Plant response rating, Barnyardgrass: 0
[6]; [15]
  Wheat plant response rating: 0
[6]; [16]
  Wheat plant response rating: 0
[6]; [17]
  Plant response rating, Wheat: 0
[6]; [18]
  Plant response rating, Wheat: 0
[7]; [15]
  Barnyardgrass plant response rating: 0
[7]; [16]
  Barnyardgrass plant response rating: 10
[7]; [17]
  Plant response rating, Barnyardgrass: 0
[7]; [18]
  Plant response rating, Barnyardgrass: 20
Corn (Zea mays); [15]
  Corn plant response rating: 0
Corn (Zea mays); [16]
  Corn plant response rating: 10
Corn (Zea mays); [17]
  Plant response rating, Corn: 0
Corn (Zea mays); [18]
  Plant response rating, Corn: 0
[8]; [13]
  Plant response rating, Ducksalad: 0
[8]; [14]
  Plant response rating, Ducksalad: 0
[8]; Flood, 31 g ai/ha
  Plant response rating, Ducksalad: 0
[8]; Flood, 62 g ai/ha
  Plant response rating, Ducksalad: 0
[9]; [15]
  Velvetleaf plant response rating: 10
[9]; [16]
  Velvetleaf plant response rating: 20
[9]; [17]
  Plant response rating, Velvetleaf: 10
[9]; [18]
  Plant response rating, Velvetleaf: 20
[10]; [15]
  Pigweed plant response rating: 50
[10]; [16]
  Pigweed plant response rating: 90
[10]; [17]
  Plant response rating, Pigweed: 60
[10]; [18]
  Plant response rating, Pigweed: 70

## CCc1nn(-c2ccc(C(F)(F)F)cc2)nc1Cn1cnc(C(F)(F)F)c1 [Compound 133]
[1]; [11]
  Foxtail, Giant plant response rating: 70
[1]; [12]
  Plant response rating, Foxtail, Giant: 90
[2]; [14]
  Plant response rating, Sedge, Umbrella: 50
[2]; Flood, 62 g ai/ha
  Plant response rating, Sedge, Umbrella: 0
[3]; [11]
  Morningglory plant response rating: 90
[3]; [12]
  Plant response rating, Morningglory: 40
Rice (Oryza sativa); [14]
  Plant response rating, Rice: 0
Rice (Oryza sativa); Flood, 62 g ai/ha
  Plant response rating, Rice: 0
[4]; [11]
  Crabgrass, Large plant response rating: 80
[4]; [12]
  Plant response rating, Crabgrass, Large: 90
[5]; [14]
  Plant response rating, Barnyardgrass: 15
[5]; Flood, 62 g ai/ha
  Plant response rating, Barnyardgrass: 0
[6]; [11]
  Wheat plant response rating: 30
[6]; [12]
  Plant response rating, Wheat: 0
[7]; [11]
  Barnyardgrass plant response rating: 40
[7]; [12]
  Plant response rating, Barnyardgrass: 40
Corn (Zea mays); [11]
  Corn plant response rating: 20
Corn (Zea mays); [12]
  Plant response rating, Corn: 10
[8]; [14]
  Plant response rating, Ducksalad: 20
[8]; Flood, 62 g ai/ha
  Plant response rating, Ducksalad: 0
[9]; [11]
  Velvetleaf plant response rating: 90
[9]; [12]
  Plant response rating, Velvetleaf: 40
[10]; [11]
  Pigweed plant response rating: 100
[10]; [12]
  Plant response rating, Pigweed: 90
